Measured values: ChEMBL document CHEMBL2413072, “Synthesis and in vitro anticancer studies of novel C-2 arylidene congeners of lantadenes” (2013)

Legend:
Type in all cases: functional
[1] = tested on: NCI-H322M; assay: Growth inhibition of human NCI-H322M cells by sulforhodamine B assay
[2] = tested on: HL-60(TB); assay: Growth inhibition of human HL-60(TB) cells by sulforhodamine B assay
[3] = tested on: RXF 393; assay: Growth inhibition of human RXF393 cells assessed as growth inhibition at 10 uM by sulforhodamine B assay; conditions: read-out: GI
[4] = tested on: HL-60(TB); assay: Growth inhibition of human HL-60(TB) cells assessed as cell growth at 10 uM by sulforhodamine B assay; conditions: read-out: Activity
[5] = tested on: CCRF-CEM; assay: Growth inhibition of human CCRF-CEM cells assessed as cell growth at 10 uM by sulforhodamine B assay; conditions: read-out: Activity
[6] = tested on: OVCAR-3; assay: Growth inhibition of human OVCAR3 cells assessed as growth inhibition at 10 uM by sulforhodamine B assay; conditions: read-out: GI
[7] = tested on: SK-MEL-2; assay: Growth inhibition of human SK-MEL-2 cells assessed as growth inhibition at 10 uM by sulforhodamine B assay; conditions: read-out: GI
[8] = tested on: SK-MEL-28; assay: Growth inhibition of human SK-MEL-28 cells assessed as growth inhibition at 10 uM by sulforhodamine B assay; conditions: read-out: GI
[9] = tested on: SNB-19; assay: Growth inhibition of human SNB19 cells assessed as growth inhibition at 10 uM by sulforhodamine B assay; conditions: read-out: GI
[10] = tested on: KM12; assay: Growth inhibition of human KM12 cells assessed as growth inhibition at 10 uM by sulforhodamine B assay; conditions: read-out: GI
[11] = Growth inhibition of human HCC2998 cells assessed as growth inhibition at 10 uM by sulforhodamine B assay; conditions: HCC 2998, read-out: GI
[12] = tested on: HOP-92; assay: Growth inhibition of human HOP92 cells assessed as growth inhibition at 10 uM by sulforhodamine B assay; conditions: read-out: GI
[13] = Growth inhibition of human EKVX cells assessed as growth inhibition at 10 uM by sulforhodamine B assay; conditions: read-out: GI
[14] = tested on: A549; assay: Growth inhibition of human A549/ATCC cells assessed as growth inhibition at 10 uM by sulforhodamine B assay; conditions: read-out: GI
[15] = tested on: BT-549; assay: Growth inhibition of human BT549 cells assessed as cell growth at 10 uM by sulforhodamine B assay; conditions: read-out: Activity
[16] = tested on: PC-3; assay: Growth inhibition of human PC3 cells assessed as cell growth at 10 uM by sulforhodamine B assay; conditions: read-out: Activity
[17] = tested on: TK-10; assay: Growth inhibition of human TK10 cells assessed as cell growth at 10 uM by sulforhodamine B assay; conditions: read-out: Activity
[18] = tested on: OVCAR-5; assay: Growth inhibition of human OVCAR5 cells assessed as cell growth at 10 uM by sulforhodamine B assay; conditions: read-out: Activity
[19] = tested on: MDA-MB-435; assay: Growth inhibition of human MDA-MB-435 cells assessed as cell growth at 10 uM by sulforhodamine B assay; conditions: read-out: Activity
[20] = tested on: LOX IMVI; assay: Growth inhibition of human LOXIMVI cells assessed as cell growth at 10 uM by sulforhodamine B assay; conditions: read-out: Activity
[21] = tested on: KM12; assay: Growth inhibition of human KM12 cells assessed as cell growth at 10 uM by sulforhodamine B assay; conditions: read-out: Activity
[22] = tested on: HCT-116; assay: Growth inhibition of human HCT116 cells assessed as cell growth at 10 uM by sulforhodamine B assay; conditions: read-out: Activity
[23] = Growth inhibition of human EKVX cells assessed as cell growth at 10 uM by sulforhodamine B assay; conditions: read-out: Activity
[24] = tested on: RPMI-8226; assay: Growth inhibition of human RPMI8226 cells assessed as cell growth at 10 uM by sulforhodamine B assay; conditions: read-out: Activity
[25] = tested on: KM12; assay: Growth inhibition of human KM12 cells assessed as cell growth at 10^-8 M by sulforhodamine B assay; conditions: read-out: Activity
[26] = tested on: NCI-H460; assay: Growth inhibition of human NCI-H460 cells assessed as cell growth at 10^-8 M by sulforhodamine B assay; conditions: read-out: Activity
[27] = tested on: TK-10; assay: Growth inhibition of human TK10 cells by sulforhodamine B assay
[28] = read-out: LC50 (the source's name)

`CC(C)=CC(=O)O[C@@H]1CC(C)(C)C[C@H]2C3=CC[C@@H]4[C@@]5(C)CC[C@H](O)C(C)(C)[C@@H]5CC[C@@]4(C)[C@]3(C)CC[C@@]12C(=O)O` [Reduced Lantadene B] gave a GI50 ([1]; read-out: GI50) of 3.62 µM, an LC50 (50% lethal concentration) ([1]; read-out: LC50) of 58 µM and a TGI ([1]; read-out: TGI) of 15 µM. The GI50 ([1]; read-out: pGI50 (converted)) was 3.63 µM, the LC50 (50% lethal concentration) ([1]; read-out: pLC50 (converted)) was 57.5 µM and the TGI ([1]; read-out: pTGI (converted)) was 15.1 µM. For the same compound, the GI50 ([2]; read-out: GI50) was 2520 nM, the CC50 [2, 28] was 86.3 µM and the TGI ([2]; read-out: TGI) was 6.86 µM. For the same compound, the GI50 ([2]; read-out: pGI50 (converted)) was 2510 nM, the CC50 ([2]; read-out: pLC50 (the source's name) (converted)) was 87.1 µM and the TGI ([2]; read-out: pTGI (converted)) was 6.92 µM. The inhibition of growth at 10 µM [3] was 14.8%, the growth at 10 µM [4] was 14% and the growth at 10 µM [5] was 27.4%. The inhibition of growth at 10 µM [6] was 26.1%, the inhibition of growth at 10 µM [7] was 13.5% and the inhibition of growth at 10 µM [8] was 11.7%. It also gave an inhibition of growth at 10 µM [9] of 14.4%, an inhibition of growth at 10 µM [10] of 65.7% and an inhibition of growth at 10 µM [11] of 38%. The inhibition of growth at 10 µM [12] was 57%, the inhibition of growth at 10 µM [13] was 52.3% and the inhibition of growth at 10 µM [14] was 76.5%. It also gave a growth at 10 µM [15] of 78.1%, a growth at 10 µM [16] of 45.4% and a growth at 10 µM [17] of 79.9%. It also gave a growth at 10 µM [18] of 119%, a growth at 10 µM [19] of 95.3% and a growth at 10 µM [20] of 53.2%. It also gave a growth at 10 µM [21] of 34.3%, a growth at 10 µM [22] of 27.2% and a growth at 10 µM [23] of 47.7%. For the same compound, the growth at 10 µM [24] was 23.7%, the growth at 0.01 µM [25] was 100% and the growth at 0.01 µM [26] was 105%. For the same compound, the GI50 ([27]; read-out: GI50) was 10.7 µM and the CC50 [27, 28] was 71.6 µM.
